Assay results reported in publication PMC12119673, “Apoptotic cell death induced by copper (II), manganese (II) and silver (I) complexes containing bridging dicarboxylate and 1,10-phenanthroline ligands: one of the multi-modes of anticancer activity?” (Biometals, 2025).
Where two headings read alike, the source gives them in different places.

Legend:
Assay type in all cases: cell-based, human
MCF-7 cells [1] = assay: In vitro cytotoxicity assessment, alamar blue assay, 24-h exposure
Protocol: The MCF-7 (human breast cancer) and MCF-12A (non-tumourigenic human breast) cell lines were obtained from the Technological University Dublin (TUDublin, City Campus) internal cell bank and commercially from the American Type Culture Collection (ATCC), respectively. Both cell lines were cultured using Dulbecco’s Modified Eagle Medium/Nutrient Mixture F-12 Ham (DMEM-F12) (Sigma, Ireland) (Cat# D6421) media. The MCF-7 media was supplemented with 10% Foetal Bovine Serum (Sigma, Ireland) (Cat# F7524) and 1% L-Glutamine (Sigma, Ireland) (Cat# 592020C). The MCF-12A media was supplemented with 5% Equine Serum (Sigma, Ireland) (Cat# H0146) 1.25% L-Glutamine (Sigma, Ireland) (Cat# 592020C), 20 ng/ml Human Epidermal Growth Factor (Thermo Fisher Scientific, Ireland) (Cat# PHG0313), 0.01 mg/ml insulin (Thermo Fisher Scientific, Ireland)(Cat# 12585014) and 500 ng/ml hydrocortisone (Sigma, Ireland) (Cat# H0888). The cells were grown in T75 culture flasks (Sarstedt, Germany) (Cat# 83.3911.002) and were incubated in a 5% CO2 atmosphere at 37 ℃. […] Following the incubation period, the media was removed, and cells were washed with sterile phosphate-buffered saline (PBS). […] Following the exposure period, the drug-containing media was removed, and cells were washed three times with PBS, ensuring complete removal of the test agents. A 5% working solution of Alamar Blue (Thermo Fisher Scientific, Ireland) (Cat# DAL1100) was prepared in dark conditions using unsupplemented cell culture media. 100 μl of the solution was added to each well, and the cells were incubated for 3 h. […] Each exposure was carried out in triplicate plates and was repeated three independent times. The software packages Microsoft^Ⓡ Excel (USA) and GraphPad Prism (Ver. 10.0.3) (GraphPad, USA) were used to analyse the alamar blue data. The treated sample values were first normalised to the negative control values. After normalisation, the mean and standard deviations (SD) were established using Microsoft^Ⓡ Excel. The statistical analysis package GraphPad was then used to determine the IC25 and IC50 concentrations.

MCF-12A cells = assay: as above
Protocol: The MCF-7 (human breast cancer) and MCF-12A (non-tumourigenic human breast) cell lines were obtained from the Technological University Dublin (TUDublin, City Campus) internal cell bank and commercially from the American Type Culture Collection (ATCC), respectively. Both cell lines were cultured using Dulbecco’s Modified Eagle Medium/Nutrient Mixture F-12 Ham (DMEM-F12) (Sigma, Ireland) (Cat# D6421) media. The MCF-7 media was supplemented with 10% Foetal Bovine Serum (Sigma, Ireland) (Cat# F7524) and 1% L-Glutamine (Sigma, Ireland) (Cat# 592020C). The MCF-12A media was supplemented with 5% Equine Serum (Sigma, Ireland) (Cat# H0146) 1.25% L-Glutamine (Sigma, Ireland) (Cat# 592020C), 20 ng/ml Human Epidermal Growth Factor (Thermo Fisher Scientific, Ireland) (Cat# PHG0313), 0.01 mg/ml insulin (Thermo Fisher Scientific, Ireland)(Cat# 12585014) and 500 ng/ml hydrocortisone (Sigma, Ireland) (Cat# H0888). The cells were grown in T75 culture flasks (Sarstedt, Germany) (Cat# 83.3911.002) and were incubated in a 5% CO2 atmosphere at 37 ℃. The cells were monitored daily, and once 80–90% confluence was reached, they were subcultured with an enzymatic dissociation method using trypsin. Both cell lines were routinely subcultured for 1 week prior to beginning experimental work, to ensure the cells had adapted to the environment.
The MCF-7 and MCF-12A cells were seeded at a density of 1 × 10^4 in 96-well flat bottom plates (Sarstedt, Germany) (Cat# 83.3924) and incubated in a 5% CO2 atmosphere at 37 ℃ for 24 h prior to exposure to the complexes. Following the incubation period, the media was removed, and cells were washed with sterile phosphate-buffered saline (PBS). […] All agents were diluted in supplemented cell culture media, and the cells were exposed to a concentration range of 0.5 μM–100 μM for 24 h in the conditions outlined previously. Following the exposure period, the drug-containing media was removed, and cells were washed three times with PBS, ensuring complete removal of the test agents. A 5% working solution of Alamar Blue (Thermo Fisher Scientific, Ireland) (Cat# DAL1100) was prepared in dark conditions using unsupplemented cell culture media. 100 μl of the solution was added to each well, and the cells were incubated for 3 h. Following incubation, absorbance values were obtained using a Varioskan Lux (Thermo Scientific, USA) at 570 nm and 600 nm wavelengths. Each exposure was carried out in triplicate plates and was repeated three independent times.
The software packages Microsoft^Ⓡ Excel (USA) and GraphPad Prism (Ver. 10.0.3) (GraphPad, USA) were used to analyse the alamar blue data. The treated sample values were first normalised to the negative control values. After normalisation, the mean and standard deviations (SD) were established using Microsoft^Ⓡ Excel. The statistical analysis package GraphPad was then used to determine the IC25 and IC50 concentrations. […] A p value of 0.05 or lower is considered to be statistically significant.

MCF-7 cells [2] = assay: Apoptosis induction, Annexin V / propidium iodide flow cytometry; details: MCF-7, IC25 concentration, 24 h
Protocol: MCF-7 and MCF-12A cells were seeded at a density of 1 × 10^5 in T25 flasks (Sarstedt, Germany) and incubated for 24 h at 37 °C with 5% CO2 allowing for attachment. Post -incubation, the media was removed, cells were washed with sterile PBS and then treated using IC25 concentrations established from the in vitro cytotoxicity screen. […] After the exposure period, the cells were enzymatically detached using trypsin, collected and centrifuged at 1200RPM for 10 min. The cells were then washed with PBS, re-centrifuged and resuspended in 1 ml of annexin binding buffer. Prior to staining, the concentration of each sample was adjusted to 1 × 10^6 cells/ml. The cells were stained with 1 μl of propidium iodide (PI) (Sigma, Ireland) (Cat #P4864) and 2 μl of Annexin V (Thermo Fisher Scientific, Ireland) (Cat #A13199). The cells were incubated at room temperature for 15 min prior to analysis. The staining process was completed in the dark to eliminate interference with photo-sensitive reagents. Immediately prior to analysis by flow cytometry, 400 μl of annexin binding buffer was added to each sample. Samples were analysed using a (CytoFLEX) (Beckman Coulter, USA). The AV/PI assay was completed three independent times.
Flow cytometry data analysis was performed with the CytExpert package (Ver. 2.4) (Beckman Coulter, USA) and Microsoft^Ⓡ Excel (USA). The mean MFI and percentage cells were calculated using these packages, followed by one-way ANOVA analysis with post hoc Bonferroni correction using GraphPad Prism (Ver. 9.4) (GraphPad, USA).
The induction of apoptosis was analysed in MCF-7 and MCF-12A cells using the Annexin V and Propidium Iodide assay with flow cytometry. […] The assay allows for the differentiation of viable, apoptotic and necrotic cells based on the selective staining of Annexin V and PI. Annexin V binds to phosphatidylserines externalised to the outer leaflet of the plasma membrane during apoptosis; and PI is a membrane impermeable dye that binds to DNA of necrotic cells with compromised plasma membranes.

[3] = MCF-7, 24-hour exposure, per one metal centre, mean ± S.D. (N=3)
[4] = MCF-7, 24-hour exposure, per one metal centre, mean ± S.D. (N=3), read-out: IC50 calculated per one metal centre
[5] = MCF-12A, 24-hour exposure, per one metal centre, mean ± S.D. (N=3)
[6] = MCF-12A, 24-hour exposure, per one metal centre, mean ± S.D. (N=3), read-out: IC50 calculated per one metal centre
[7] = MCF-7, 24-h exposure, 25% reduction in metabolic activity, mean ± SD (N = 3)
[8] = MCF-12A, 24-h exposure, 25% reduction in metabolic activity, mean ± SD (N = 3)

Compound | Cytotoxic activity IC25 ± SD (MCF-7 cells [1]) [µM] | IC50 (MCF-7 cells [1]) [µM] | IC25 calculated per one metal centre (MCF-7 cells [1]; [3]) | IC50 (MCF-7 cells [1]; [4]) [µM] | Cytotoxic activity IC25 ± SD (MCF-12A cells) [µM] | IC50 (MCF-12A cells) [µM] | IC25 calculated per one metal centre (MCF-12A cells; [5]) | IC50 (MCF-12A cells; [6]) [µM] | Decrease in toxicity compared to phen-containing complex 4 (MCF-7 cells [1]; Ag(I) pre-cursor vs complex 4) | Decrease in toxicity compared to phen-containing complex 5 (MCF-7 cells [1]; Ag(I) pre-cursor vs complex 5) [fold] | Cytotoxic activity IC25 ± SD (MCF-7 cells [1]; [7]) [µM] | Cytotoxic activity IC25 ± SD (MCF-12A cells; [8]) [µM] | Necrotic population (% cells) (MCF-7 cells [2]) | IC50 (MCF-7 cells [1]; MCF-7, 24-h exposure, 50% reduction in metabolic activity, mean ± SD (N = 3), read-out: Cytotoxic activity IC50 ± SD) [µM] | IC50 (MCF-12A cells; MCF-12A, 24-h exposure, 50% reduction in metabolic activity, mean ± SD (N = 3), read-out: Cytotoxic activity IC50 ± SD) [µM]
O=C([O-])CCCCCCC(=O)[O-].O=C([O-])CCCCCCC(=O)[O-].[Cu+2].[Cu+2] [Complex 3, [Cu2(oda)2]] | > 100 | > 100 | >100  µM | > 100 | > 100 | > 100 | >100  µM | > 100 | – | – | – | – | – | – | –
O=C([O-])CCCCCCC(=O)[O-].[Ag+].[Ag+] [Complex 6, [Ag2(oda)]] | – | – | 27.80 ± 5.86 µM | – | – | – | 12.86 ± 9.80 µM | – | approximately twofold | ~3.5 | 13.90 ± 2.93 | 6.43 ± 4.9 | high necrotic populations | – | –
O.O=C([O-])CCCCCCC(=O)[O-].[Mn+2] [Complex 8, [Mn(oda)]⋅H2O] | – | – | >100  µM | > 100 | – | – | >100  µM | > 100 | – | – | > 100 | > 100 | – | > 100 | > 100
